Data taken from patent publication US6936607B2, “2,4,6-Triaminopyrimidines for the treatment of depression and/or anxiety” (H. Lunobeck A/S, priority 2002, dated 2005).

target: T1, human GalR3 receptor (Homo sapiens, UniProt O60755); experiment: Radioligand binding assay at cloned human GalR3 receptor; conditions: Binding Data; membranes from LM(tk-) cells stably transfected with the human GalR3 receptor
T1 construct: expressed in transfected cells; host or cells: mouse fibroblast LM(tk-) cells, stably transfected; membranes
T1 sequence (O60755 1-368): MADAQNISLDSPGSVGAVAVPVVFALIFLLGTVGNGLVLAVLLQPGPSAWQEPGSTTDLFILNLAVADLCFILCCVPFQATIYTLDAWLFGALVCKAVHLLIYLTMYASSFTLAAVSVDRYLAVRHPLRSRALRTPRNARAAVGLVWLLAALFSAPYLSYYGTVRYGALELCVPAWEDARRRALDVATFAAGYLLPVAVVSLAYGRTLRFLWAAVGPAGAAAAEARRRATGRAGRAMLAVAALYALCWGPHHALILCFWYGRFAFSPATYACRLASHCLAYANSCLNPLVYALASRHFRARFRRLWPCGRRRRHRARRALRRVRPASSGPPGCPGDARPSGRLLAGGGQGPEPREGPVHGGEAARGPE
Procedure: LM(tk-) cells were stably transfected with the human GalR3 receptor. cDNAs for the human and rat GalR3 receptors were transfected with a G-418 resistant gene into the mouse fibroblast LM(tk-) cell line by a calcium phosphate transfection method (Cullen, 1987). Membranes were harvested from stably transfected LM(tk-) cells. Adherent cells were washed twice in ice-cold phosphate buffered saline (138 mM NaCl, 8.1 mM Na2HPO4, 2.5 mM KCl, 1.2 mM KH2PO4, 0.9 mM CaCl2, 0.5 mM MgCl2, pH 7.4) and lysed by sonication in ice-cold sonication buffer (20 mM Tris-HCl, 5 mM EDTA, pH 7.7). Large particles and debris were cleared by low speed centrifugation (200×g, 5 min, 4° C.). Membranes were collected from the supernatant fraction by centrifugation (32,000×g, 18 min, 4° C.), washed with ice-cold hypotonic buffer, and collected again by centrifugation (32,000×g, 18 min, 4° C.). The final membrane pellet was resuspended by sonication into a small volume of ice-cold binding buffer (˜1 ml for every 5 plates: 10 mM NaCl, 20 mM HEPES, 0.22 mM KH2PO4, 1.26 mM CaCl2, 0.81 mM MgSO4, pH 7.4). Protein concentration was measured by the Bradford method (Bradford, 1976) using Bio-Rad Reagent, with bovine serum albumin as a standard. Membranes were held on ice for up to one hour and used fresh, or flash frozen and stored in liquid nitrogen. Membranes were prepared similarly from CHO cells. The methods to obtain the cDNA of the receptors, express said receptors in heterologous systems, and carry out assays to determine binding affinity are described as follows. Binding assays were performed according to the following published method: human GALR3 (PCT International Publication No. WO 02/060392).

Structure (SMILES) | Ki [nM]
CN(C)c1cc(Nc2cccc(OCc3ccccc3)c2)nc(N(C)CC2CCCO2)n1 (stereo not drawn) [Example 35, N^4-[3-(BENZYLOXY)PHENYL]-N^2,N^6,N^6-TRIMETHYL-N^2-(TETRAHYDRO-2-FURANYLMETHYL)-2,4,6-PYRIMIDINETRIAMINE] | 42
C[C@@H]1CN(c2nc(Nc3ccc(Cl)c(Cl)c3)cc(N(C)C)n2)C[C@H](C)O1 [Example 51, N^4-(3,4-DICHLOROPHENYL)-2-(CIS-2,6-DIMETHYLMORPHOLINYL)-N^6,N^6-DIMETHYL-4,6-PYRIMIDINEDIAMINE] | 81
CN(C)c1cc(Nc2ccc(Cl)c(Cl)c2)nc(N2CCN(c3ccc(Cl)cc3)CC2)n1 [Example 54, 2-[4-(4-CHLOROPHENYL)-1-PIPERAZINYL]-N-(3,4-DICHLOROPHENYL)-N^6,N^6-DIMETHYL-4,6-PYRIMIDINEDIAMINE] | 150
COc1cccc(Nc2cc(N(C)C)nc(N3CCN(c4ccccc4Cl)CC3)n2)c1 [Example 11, 2-[4-(2-CHLOROPHENYL)-1-PIPERAZINYL]-N^4-(3-METHOXYPHENYL)-N^6,N^6-DIMETHYL-4,6-PYRIMIDINEDIAMINE] | 62
COc1cccc(Nc2cc(N(C)C)nc(N3CCN(c4cccc(Cl)c4)CC3)n2)c1 [Example 8, 2-[4-(3-CHLOROPHENYL)-1-PIPERAZINYL]-N^4-(3-METHOXYPHENYL)-N^6,N^6-DIMETHYL-4,6-PYRIMIDINEDIAMINE] | 107
CN(C)c1cc(Nc2ccc3c(c2)CCC3)nc(N2CCN(c3ccccc3Cl)CC2)n1 [Example 4, 2-[4-(2-CHLOROPHENYL)-1-PIPERAZINYL]-N^4-(2,3-DIHYDRO-1H-INDEN-5-YL)-N^6,N^6-DIMETHYL-4,6-PYRIMIDINEDIAMINE] | 54
CN(C)c1cc(Nc2ccc(C3CCCCC3)cc2)nc(N2CCN(c3ccccc3F)CC2)n1 [Example 18, N^4-(4-CYCLOHEXYLPHENYL)-2-[4-(2-FLUOROPHENYL)-1-PIPERAZINYL]-N^6,N^6-DIMETHYL-4,6-PYRIMIDINEDIAMINE] | 46
CN(C)c1cc(Nc2cccc(OCc3ccccc3)c2)nc(N2CCCC2)n1 [Example 37, N^4-[3-(BENZYLOXY)PHENYL]-N^6,N^6-DIMETHYL-2-(1-PYRROLIDINYL)-4,6-PYRIMIDINEDIAMINE] | 59
CN(C)c1cccc(Nc2cc(N(C)C)nc(N3CCN(c4ccccn4)CC3)n2)c1 [Example 28, N^4-[3-(DIMETHYLAMINO)PHENYL]-N^6,N^6-DIMETHYL-2-[4-(2-PYRIDINYL)-1-PIPERAZINYL]-4,6-PYRIMIDINEDIAMINE] | 417
CN(C)c1cc(Nc2ccc(C3CCCCC3)cc2)nc(N2CCN(c3ccc(Cl)cc3)CC2)n1 [Example 10, 2-[4-(4-CHLOROPHENYL)-1-PIPERAZINYL]-N^4-(4-CYCLOHEXYLPHENYL)-N^6,N^6-DIMETHYL-4,6-PYRIMIDINEDIAMINE] | 47
COc1cccc(Nc2cc(N(C)C)nc(N3CCN(c4ccc(Cl)cc4)CC3)n2)c1 [Example 15, 2-[4-(4-CHLOROPHENYL)-1-PIPERAZINYL]-N^4-(3-METHOXYPHENYL)-N^6,N^6-DIMETHYL-4,6-PYRIMIDINEDIAMINE] | 88
Cc1ccc(Nc2cc(N(C)C)nc(NCc3ccccc3)n2)cc1 [Example 39, N^2-BENZYL-N^4,N^4-DIMETHYL-N^6-(4-METHYLPHENYL)-2,4,6-PYRIMIDINE TRIAMINE] | 114
CN(C)c1cc(Nc2ccc3c(c2)CCC3)nc(N2CCN(c3ccc(Cl)cc3)CC2)n1 [Example 6, 2-[4-(4-CHLOROPHENYL)-1-PIPERAZINYL]-N^4-(2,3-DIHYDRO-1H-INDEN-5-YL)-N^6,N^6-DIMETHYL-4,6-PYRIMIDINEDIAMINE] | 52
CN(C)c1cc(Nc2ccc(SC(F)(F)F)c(Cl)c2)nc(N2CCN(c3ccc(Cl)cc3)CC2)n1 [Example 30, 2-[4-(4-CHLOROPHENYL)-1-PIPERAZINYL]-N^4-{3-CHLORO-4-[TRIFLUOROMETHYL) SULFANYL]PHENYL}-N^6,N^6-DIMETHYL-4,6-PYRIMIDINEDIAMINE] | 138
CN(C)c1cc(Nc2ccc(Cl)c(Cl)c2)nc(N2CCN(c3ccccc3Cl)CC2)n1 [Example 21, 2-[4-(2-CHLOROPHENYL)-1-PIPERAZINYL]-N^4-(3,4-DICHLOROPHENYL)-N^6,N^6-DIMETHYL-4,6-PYRIMIDINEDIAMINE] | 63
Cc1ccc(Nc2cc(N(C)C)nc(N3CCN(c4ccccn4)CC3)n2)cc1NC(C)C [Example 26, N^4-[3-(ISOPROPYLAMINO)-4-METHYLPHENYL]-N^6,N^6-DIMETHYL-2-[4-(2-PYRIDINYL)-1-PIPERAZINYL]-4,6-PYRIMIDINEDIAMINE] | 246
CN(C)c1cc(Nc2cccc(OCc3ccccc3)c2)nc(N2CCCCC2)n1 [Example 36, N^4-[3-(BENZYLOXY)PHENYL]-N^6,N^6-DIMETHYL-2-(1-PIPERIDINYL)-4,6-PYRIMIDINEDIAMINE] | 23
CN(C)c1cc(Nc2ccc(SC(F)(F)F)c(Cl)c2)nc(N2CCN(c3ccccc3Cl)CC2)n1 [Example 22, 2-[4-(2-CHLOROPHENYL)-1-PIPERAZINYL]-N^4-{3-CHLORO-4-[(TRIFLUOROMETHYL) SULFANYL]PHENYL}-N^6,N^6-DIMETHYL-4,6-PYRIMIDINE DIAMINE] | 182
CN(C)c1cc(Nc2ccc(Cl)c(Cl)c2)nc(N2CCN(c3cccc(Cl)c3)CC2)n1 [Example 16, 2-[4-(3-CHLOROPHENYL)-1-PIPERAZINYL]-N^4-(3,4-DICHLOROPHENYL)-N^6,N^6-DIMETHYL-4,6-PYRIMIDINEDIAMINE] | 34
CCn1ccc2ccc(Nc3cc(N(C)C)nc(N4CCN(c5ccccn5)CC4)n3)cc21 [Example 47, N^4-(1-ETHYL-1H-INDOL-6-YL)-N^6,N^6-DIMETHYL-2-[4-(2-PYRIDINYL)-1-PIPERAZINYL]-4,6-PYRIMIDINEDIAMINE] | 351
Cc1ccc(Nc2cc(N(C)C)nc(N3CCN(c4ccccc4Cl)CC3)n2)cc1 [Example 3, 2-[4-(2-CHLOROPHENYL)-1-PIPERAZINYL]-N^4,N^4-DIMETHYL-N^6-(4-METHYLPHENYL)-4,6-PYRIMIDINEDIAMINE] | 29
Cc1ccc(Nc2cc(N(C)C)nc(N3C[C@@H](C)O[C@@H](C)C3)n2)cc1N(C)Cc1ccccc1 [Example 49, N^4-{3-[BENZYL(METHYL)AMINO]-4-METHYLPHENYL}-2-[CIS-2,6-DIMETHYIMORPHOLINYL]-N^6,N^6-DIMETHYL-4,6-PYRIMIDINEDIAMINE] | 103
Cc1ccc(Nc2cc(N(C)C)nc(N3CCN(c4ccccc4F)CC3)n2)cc1C [Example 19, N^4-(3,4-DIMETHYLPHENYL)-2-[4-(2-FLUOROPHENYL)-1-PIPERAZINYL]-N^6,N^6-DIMETHYL-4,6-PYRIMIDINEDIAMINE] | 118
Cc1ccc(Nc2cc(N3CCN(c4ncccn4)CC3)nc(N3C[C@@H](C)O[C@@H](C)C3)n2)cc1 [Example 52, 2-(CIS-2,6-DIMETHYLMORPHOLINYL)-N-(4-METHYLPHENYL)-6-[4-(2-PYRIMIDINYL)-1-PIPERAZINYL]-4-PYRIMIDINAMINE] | 117
CN(C)c1cc(Nc2cccc(OCc3ccccc3)c2)nc(N2CCN(c3ncccn3)CC2)n1 [Example 41, N-[3-(BENZYLOXY)PHENYL]-N^6,N^6-DIMETHYL-2-[4-(2-PYRIMIDINYL)-1-PIPERAZINYL]-4,6-PYRIMIDINEDIAMINE] | 14
CN(C)c1cc(Nc2ccc(SC(F)(F)F)c(Cl)c2)nc(N2CCN(c3ccccc3F)CC2)n1 [Example 14, N^4-{3-CHLORO-4-[(TRIFLUOROMETHYL)SULFANYL]PHENYL}-2-[4-(2-FLUOROPHENYL)-1-PIPERAZINYL]-N^6,N^6-DIMETHYL-4,6-PYRIMIDINEDIAMINE] | 158
CN(C)c1cc(Nc2cccc(OCc3ccccc3)c2)nc(N2CCN(c3ccccc3F)CC2)n1 [Example 24, N^4-[3-(BENZYLOXY)PHENYL]-2-[4-(2-FLUOROPHENYL)-1-PIPERAZINYL]-N^6,N^6-DIMETHYL-4,6-PYRIMIDINEDIAMINE] | 20
CCNc1cccc(Nc2cc(N(C)C)nc(N3CCN(Cc4ccccc4)CC3)n2)c1 [Example 33, 2-(4-BENZYL-1-PIPERAZINYL)-N^4-[3-(ETHYLAMINO)PHENYL]N^6,N^6-DIMETHYL-4,6-PYRIMIDINEDIAMINE] | 942
Clc1ccc(Nc2cc(N3CCN(c4ccccn4)CC3)nc(N3CCN(c4ccccn4)CC3)n2)cc1Cl [Example 43, N-(3,4-DICHLOROPHENYL)-2,6-BIS[4-(2-PYRIDINYL)-1-PIPERAZINYL]-4-PYRIMIDINAMINE] | 60
C[C@H]1CN(c2nc(Nc3cccc(OCc4ccccc4)c3)cc(N(C)C)n2)C[C@H](C)O1 (racemic) [Example 48, (±)-N^4-[3-(BENZYLOXY)PHENYL]-2-(TRANS-2,6-DIMETHYL MORPHOLINYL)-N^6,N^6-DIMETHYL-4,6-PYRIMIDINEDIAMINE] | 30
